Among the data in BindingDB's records for doi:10.3109/14756366.2013.827678 (Qingdao University, 2014) are IC50 values, retold here.

pIC50: −log10 of the molar value. Values joined by “and” are separate entries in the source; they are usually repeats but may differ in a detail not shown here. Equal entries are not always repeated.

The target in this assay is T1, Histone deacetylase 8 (Homo sapiens, UniProt Q9BY41).
T1 sequence (Q9BY41 whole entry): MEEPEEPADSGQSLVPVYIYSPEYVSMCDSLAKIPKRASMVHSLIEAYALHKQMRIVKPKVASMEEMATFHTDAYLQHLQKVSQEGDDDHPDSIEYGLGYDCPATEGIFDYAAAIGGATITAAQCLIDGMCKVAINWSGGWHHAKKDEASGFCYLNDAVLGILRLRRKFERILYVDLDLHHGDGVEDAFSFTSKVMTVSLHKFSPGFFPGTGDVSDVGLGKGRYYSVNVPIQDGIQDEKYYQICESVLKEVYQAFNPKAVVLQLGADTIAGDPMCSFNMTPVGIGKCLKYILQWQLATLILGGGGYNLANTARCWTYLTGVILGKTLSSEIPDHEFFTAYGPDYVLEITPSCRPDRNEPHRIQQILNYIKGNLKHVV
Briefly: Enzyme inhibition assay. As for the experimental part:
The nucleus extract […] HDAC8 enzyme was expressed in Escherichia coli. Boc-Lys (acetyl)-AMC was used as the substrate of HDAC. SAHA which is the HDAC inhibitor on market was used as a positive control. The compounds were diluted to six concentrations (25, 5, 1, 0.2, 0.04 and 0.008 uM/L) to investigate their ability of inhibiting HDAC activity.
Usually pIC50 stands for −log10 of the IC50, conventionally taken in molar units. The compound `CC(C)(C)OC(=O)NC(C(=O)Nc1ccc(C(=O)NO)cc1)c1ccccc1` (configuration not stated) [phenylglycine containing lead compound (4h)] showed a negative logarithm of the IC50 (pIC50) of 5.82.

For the compound `CC(C)(C)c1ccc(NC(=O)[C@@H](NC(=O)Nc2ccc(C(=O)NCCCCCC(=O)NO)cc2)c2ccccc2)cc1` [(S)-4-(3-(2-((4-(tert-butyl)phenyl)amino)-2-oxo-1-phenylethyl)ureido)-N-(6-(hydroxyamino)-6-oxohexyl)benzamide (L4)], the negative-log IC50 (pIC50) is 5.63. This pIC50 and that of the compound before are within 0.2 log units of each other. Turning to `O=C(CCCCCNC(=O)c1ccc(NC(=O)N[C@H](C(=O)NCc2ccc(F)cc2)c2ccccc2)cc1)NO` [(S)-4-(3-(2-((4-fluorobenzyl)amino)-2-oxo-1-phenylethyl)ureido)-N-(6-(hydroxyamino)-6-oxohexyl)benzamide (L15)], the pIC50 was 5.97 and 5.92. For `O=C(CCCCCNC(=O)c1ccc(NC(=O)N[C@H](C(=O)NCc2ccccc2)c2ccccc2)cc1)NO` [(S)-4-(3-(2-(benzylamino)-2-oxo-1-phenylethyl)ureido)-N-(6-(hydroxyamino)-6-oxohexyl)benzamide (L1)] the value was 5.82; for `Cc1cccc(NC(=O)[C@@H](NC(=O)Nc2ccc(C(=O)NCCCCCC(=O)NO)cc2)c2ccccc2)c1` [(S)-N-(6-(hydroxyamino)-6-oxohexyl)-4-(3-(2-oxo-1-phenyl-2-(m-tolylamino)ethyl)ureido)benzamide (L18)], 5.88.

Compound `CC(C)c1cccc(C(C)C)c1NC(=O)[C@@H](NC(=O)Nc1ccc(C(=O)NCCCCCC(=O)NO)cc1)c1ccccc1` [(S)-4-(3-(2-((2,6-diisopropylphenyl)amino)-2-oxo-1-phenylethyl)ureido)-N-(6-(hydroxyamino)-6-oxohexyl)benzamide (L17)] showed a negative-log IC50 (pIC50) of 5.75. Consider `O=C(CCCCCNC(=O)c1ccc(NC(=O)N[C@H](C(=O)Nc2ccccc2F)c2ccccc2)cc1)NO` [(S)-4-(3-(2-((2-fluorophenyl)amino)-2-oxo-1-phenylethyl)ureido)-N-(6-(hydroxyamino)-6-oxohexyl)benzamide (L2)], for which the negative logarithm of the IC50 (pIC50) is 5.88. For `O=C(CCCCCNC(=O)c1ccc(NC(=O)N[C@H](C(=O)Nc2ccccc2O)c2ccccc2)cc1)NO` [(S)-N-(6-(hydroxyamino)-6-oxohexyl)-4-(3-(2-((2-hydroxyphenyl)amino)-2-oxo-1-phenylethyl)ureido)benzamide (L11)] the value was 5.88; for `O=C(CCCCCNC(=O)c1ccc(NC(=O)N[C@H](C(=O)Nc2cccc(C(F)(F)F)c2)c2ccccc2)cc1)NO` [(S)-N-(6-(hydroxyamino)-6-oxohexyl)-4-(3-(2-oxo-1-phenyl-2-((3-(trifluoromethyl)phenyl)amino)ethyl)ureido)benzamide (L8)], 6.01; for `O=C(CCCCCNC(=O)c1ccc(NC(=O)N[C@H](C(=O)Nc2ccc(F)cc2)c2ccccc2)cc1)NO` [(S)-4-(3-(2-((4-fluorophenyl)amino)-2-oxo-1-phenylethyl)ureido)-N-(6-(hydroxyamino)-6-oxohexyl)benzamide (L3)], 5.75.

For the compound `O=C(CCCCCNC(=O)c1ccc(NC(=O)N[C@H](C(=O)Nc2ccco2)c2ccccc2)cc1)NO` [(S)-4-(3-(2-(furan-2-ylamino)-2-oxo-1-phenylethyl)ureido)-N-(6-(hydroxyamino)-6-oxohexyl)benzamide (L5)], the negative logarithm of the IC50 (pIC50) is 5.84. The pIC50 values of the last two compounds are within 0.2 log units of each other. For `Cc1ccccc1NC(=O)[C@@H](NC(=O)Nc1ccc(C(=O)NCCCCCC(=O)NO)cc1)c1ccccc1` [(S)-N-(6-(hydroxyamino)-6-oxohexyl)-4-(3-(2-oxo-1-phenyl-2-(o-tolylamino)ethyl)ureido)benzamide (L6)] the value was 5.87; for `Cc1cc(C)cc(NC(=O)[C@@H](NC(=O)Nc2ccc(C(=O)NCCCCCC(=O)NO)cc2)c2ccccc2)c1` [(S)-4-(3-(2-((3,5-dimethylphenyl)amino)-2-oxo-1-phenylethyl)ureido)-N-(6-(hydroxyamino)-6-oxohexyl)benzamide (L13)], 5.78; for `O=C(CCCCCNC(=O)c1ccc(NC(=O)N[C@H](C(=O)Nc2ccc(Cl)cc2Cl)c2ccccc2)cc1)NO` [(S)-4-(3-(2-((2,4-dichlorophenyl)amino)-2-oxo-1-phenylethyl)ureido)-N-(6-(hydroxyamino)-6-oxohexyl)benzamide (L19)], 5.80.

Compound `Cc1ccc(NC(=O)[C@@H](NC(=O)Nc2ccc(C(=O)NCCCCCC(=O)NO)cc2)c2ccccc2)cc1` [(S)-N-(6-(hydroxyamino)-6-oxohexyl)-4-(3-(2-oxo-1-phenyl-2-(p-tolylamino)ethyl)ureido)benzamide (L9)] gave a pIC50 of 5.73. As to `COc1ccccc1NC(=O)[C@@H](NC(=O)Nc1ccc(C(=O)NCCCCCC(=O)NO)cc1)c1ccccc1` [(S)-N-(6-(hydroxyamino)-6-oxohexyl)-4-(3-(2-((2-methoxyphenyl)amino)-2-oxo-1-phenylethyl)ureido)benzamide (L10)], the pIC50 is 5.75. The same measure for `O=C(CCCCCNC(=O)c1ccc(NC(=O)N[C@H](C(=O)Nc2cccc(Cl)c2)c2ccccc2)cc1)NO` [(S)-4-(3-(2-((3-chlorophenyl)amino)-2-oxo-1-phenylethyl)ureido)-N-(6-(hydroxyamino)-6-oxohexyl)benzamide (L12)]: 5.89.
